Data published in article PMC5097156, “Potent and selective chemical probe of hypoxic signalling downstream of HIF-α hydroxylation via VHL inhibition” (Nature Communications, 2016).

Experiments:
Assay in all cases: biochemical
Design in all cases: CEREP ExpresSProfile competition binding, remaining control specific binding of reference compound
Details in all cases: radioligand binding; read-out: Mean % of control specific binding (±sd)
NK3 (h) = target: T1, NK3 (h) (Homo sapiens, UniProt P29371)
T1 construct: gene TACR3
T1 sequence (P29371 whole entry): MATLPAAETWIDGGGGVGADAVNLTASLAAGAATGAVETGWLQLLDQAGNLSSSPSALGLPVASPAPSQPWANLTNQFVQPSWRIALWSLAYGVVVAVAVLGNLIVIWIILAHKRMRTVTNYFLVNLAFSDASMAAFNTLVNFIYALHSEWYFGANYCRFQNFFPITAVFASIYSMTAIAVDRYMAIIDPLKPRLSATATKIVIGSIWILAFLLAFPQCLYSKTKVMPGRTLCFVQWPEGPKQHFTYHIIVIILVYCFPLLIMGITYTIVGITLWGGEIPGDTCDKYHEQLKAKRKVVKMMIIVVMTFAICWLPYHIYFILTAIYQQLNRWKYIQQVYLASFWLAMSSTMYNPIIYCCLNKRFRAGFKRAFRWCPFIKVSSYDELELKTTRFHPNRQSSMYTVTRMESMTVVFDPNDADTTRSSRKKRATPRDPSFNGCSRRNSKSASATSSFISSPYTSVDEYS

GAL2 (h) = target: T2, GAL2 (h) (Homo sapiens, UniProt O43603)
T2 construct: gene GALR2
T2 sequence (O43603 whole entry): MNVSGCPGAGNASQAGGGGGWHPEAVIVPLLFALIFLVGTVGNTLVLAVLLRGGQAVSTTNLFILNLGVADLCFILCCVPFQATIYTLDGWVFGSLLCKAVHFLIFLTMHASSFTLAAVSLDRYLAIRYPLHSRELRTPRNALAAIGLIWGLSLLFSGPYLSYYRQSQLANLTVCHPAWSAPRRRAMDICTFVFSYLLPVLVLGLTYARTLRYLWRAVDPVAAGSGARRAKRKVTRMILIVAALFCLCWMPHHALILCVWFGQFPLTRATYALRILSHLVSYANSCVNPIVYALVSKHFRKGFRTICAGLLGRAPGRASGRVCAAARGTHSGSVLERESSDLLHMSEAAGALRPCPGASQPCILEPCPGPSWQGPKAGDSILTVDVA

beta 2 (h) = target: T3, beta 2 (h) (Homo sapiens, UniProt P07550)
T3 construct: gene ADRB2
T3 sequence (P07550 whole entry): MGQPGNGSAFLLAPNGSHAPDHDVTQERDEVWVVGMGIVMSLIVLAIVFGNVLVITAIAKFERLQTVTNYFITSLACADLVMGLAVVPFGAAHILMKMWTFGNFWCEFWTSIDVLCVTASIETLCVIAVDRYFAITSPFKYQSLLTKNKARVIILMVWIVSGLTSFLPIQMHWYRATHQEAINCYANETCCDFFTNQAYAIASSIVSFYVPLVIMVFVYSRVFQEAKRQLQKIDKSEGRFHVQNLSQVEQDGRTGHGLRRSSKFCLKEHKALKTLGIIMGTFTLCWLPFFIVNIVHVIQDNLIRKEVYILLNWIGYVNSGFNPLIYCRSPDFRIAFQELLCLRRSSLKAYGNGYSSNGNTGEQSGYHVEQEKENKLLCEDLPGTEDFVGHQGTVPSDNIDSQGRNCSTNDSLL

kappa (KOP) = target: T4, kappa (KOP) (Rattus norvegicus, UniProt P34975)
T4 construct: gene Oprk1

delta (DOP) (h) = target: T5, delta (DOP) (h) (Homo sapiens, UniProt P41143)
T5 construct: gene OPRD1
T5 sequence (P41143 whole entry): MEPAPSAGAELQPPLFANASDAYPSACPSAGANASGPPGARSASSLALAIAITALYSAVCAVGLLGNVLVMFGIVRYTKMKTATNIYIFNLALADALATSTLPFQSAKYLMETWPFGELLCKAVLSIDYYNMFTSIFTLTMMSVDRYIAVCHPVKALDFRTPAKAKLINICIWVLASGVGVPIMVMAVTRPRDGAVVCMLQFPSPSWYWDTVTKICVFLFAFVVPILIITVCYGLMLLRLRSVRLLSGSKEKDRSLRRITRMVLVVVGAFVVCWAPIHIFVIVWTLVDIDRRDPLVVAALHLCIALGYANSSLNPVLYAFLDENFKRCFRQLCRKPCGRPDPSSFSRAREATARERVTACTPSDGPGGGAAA

NOP (ORL1) (h) = target: T6, NOP (ORL1) (h) (Homo sapiens, UniProt P41146)
T6 construct: gene OPRL1

mu (MOP) (h) = target: T7, mu (MOP) (h) (Homo sapiens, UniProt P35372)
T7 construct: gene OPRM1

M3 (h) = target: T8, M3 (h) (Homo sapiens, UniProt P20309)
T8 construct: gene CHRM3
T8 sequence (P20309 whole entry): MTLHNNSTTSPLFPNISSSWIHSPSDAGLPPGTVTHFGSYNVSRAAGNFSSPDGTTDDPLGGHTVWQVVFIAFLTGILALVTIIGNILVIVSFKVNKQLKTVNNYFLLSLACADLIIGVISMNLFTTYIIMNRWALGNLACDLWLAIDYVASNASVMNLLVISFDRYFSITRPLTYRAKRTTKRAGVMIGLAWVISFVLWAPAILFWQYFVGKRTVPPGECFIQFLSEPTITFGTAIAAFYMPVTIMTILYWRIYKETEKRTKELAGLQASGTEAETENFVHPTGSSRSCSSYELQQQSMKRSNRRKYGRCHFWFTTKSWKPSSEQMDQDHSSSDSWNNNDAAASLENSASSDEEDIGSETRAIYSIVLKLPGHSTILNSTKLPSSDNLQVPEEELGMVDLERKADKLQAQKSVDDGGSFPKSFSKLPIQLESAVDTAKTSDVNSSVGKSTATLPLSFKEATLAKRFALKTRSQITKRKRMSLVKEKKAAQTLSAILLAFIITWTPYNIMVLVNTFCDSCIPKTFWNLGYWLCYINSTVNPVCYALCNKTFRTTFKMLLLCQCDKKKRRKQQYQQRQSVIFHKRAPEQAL

NK2 (h) = target: T9, NK2 (h) (Homo sapiens, UniProt P21452)
T9 construct: gene TACR2

H1 (h) = target: T10, H1 (h) (Homo sapiens, UniProt P35367)
T10 construct: gene HRH1

D1 (h) = target: T11, D1 (h) (Homo sapiens, UniProt P21728)
T11 construct: gene DRD1
T11 sequence (P21728 whole entry): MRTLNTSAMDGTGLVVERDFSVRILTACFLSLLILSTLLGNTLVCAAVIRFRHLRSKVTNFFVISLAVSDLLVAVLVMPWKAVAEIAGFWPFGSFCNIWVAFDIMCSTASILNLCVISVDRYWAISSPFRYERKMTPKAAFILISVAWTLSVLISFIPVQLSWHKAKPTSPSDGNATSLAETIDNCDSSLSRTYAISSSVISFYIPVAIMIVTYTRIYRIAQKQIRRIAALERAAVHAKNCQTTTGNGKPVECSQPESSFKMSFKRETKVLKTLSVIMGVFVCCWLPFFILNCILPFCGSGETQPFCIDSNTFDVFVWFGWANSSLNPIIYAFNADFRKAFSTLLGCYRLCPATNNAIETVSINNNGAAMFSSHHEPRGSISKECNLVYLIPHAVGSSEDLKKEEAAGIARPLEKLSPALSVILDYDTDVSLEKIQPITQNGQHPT

5-HT1A (h) = target: T12, 5-HT1A (h) (Homo sapiens, UniProt P08908)
T12 construct: gene HTR1A
T12 sequence (P08908 whole entry): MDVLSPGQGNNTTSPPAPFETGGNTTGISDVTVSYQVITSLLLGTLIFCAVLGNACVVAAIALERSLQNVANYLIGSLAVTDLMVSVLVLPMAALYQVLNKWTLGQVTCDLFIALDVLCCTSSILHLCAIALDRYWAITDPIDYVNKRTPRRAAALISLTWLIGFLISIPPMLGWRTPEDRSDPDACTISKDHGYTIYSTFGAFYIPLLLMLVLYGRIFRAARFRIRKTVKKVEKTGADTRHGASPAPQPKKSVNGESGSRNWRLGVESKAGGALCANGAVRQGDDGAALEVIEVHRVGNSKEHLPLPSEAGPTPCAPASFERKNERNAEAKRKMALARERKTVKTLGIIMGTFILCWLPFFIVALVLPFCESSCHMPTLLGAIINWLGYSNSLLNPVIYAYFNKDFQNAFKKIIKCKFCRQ

5-HT1B = target: T13, 5-HT1B (Rattus norvegicus, UniProt P28564)
T13 construct: gene Htr1b; rat cerebral cortex

5-HT3 (h) = target: T14, 5-HT3 (h) (Homo sapiens, UniProt P46098)
T14 construct: gene HTR3A
T14 sequence (P46098 whole entry): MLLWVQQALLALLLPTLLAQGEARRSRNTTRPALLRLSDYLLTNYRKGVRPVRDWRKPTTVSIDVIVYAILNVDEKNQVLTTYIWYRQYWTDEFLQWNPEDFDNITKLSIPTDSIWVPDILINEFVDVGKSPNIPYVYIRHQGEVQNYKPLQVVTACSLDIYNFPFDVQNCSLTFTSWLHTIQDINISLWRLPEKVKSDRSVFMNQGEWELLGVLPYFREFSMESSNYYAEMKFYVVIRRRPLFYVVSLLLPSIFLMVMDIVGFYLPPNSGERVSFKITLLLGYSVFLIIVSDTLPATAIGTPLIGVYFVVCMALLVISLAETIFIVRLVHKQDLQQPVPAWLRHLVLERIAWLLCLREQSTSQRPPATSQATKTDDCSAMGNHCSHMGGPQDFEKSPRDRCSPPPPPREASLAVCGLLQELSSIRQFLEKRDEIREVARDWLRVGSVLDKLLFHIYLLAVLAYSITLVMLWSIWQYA

MC4 (h) = target: T15, MC4 (h) (Homo sapiens, UniProt P32245)
T15 construct: gene MC4R

5-HT2B (h) = target: T16, 5-HT2B (h) (Homo sapiens, UniProt P41595)
T16 construct: gene HTR2B

CXCR2 (IL-8B) (h) = CXCR2 (IL-8B) (h) (Homo sapiens, UniProt P25025)
Sequence of CXCR2 (IL-8B) (h) (P25025 whole entry): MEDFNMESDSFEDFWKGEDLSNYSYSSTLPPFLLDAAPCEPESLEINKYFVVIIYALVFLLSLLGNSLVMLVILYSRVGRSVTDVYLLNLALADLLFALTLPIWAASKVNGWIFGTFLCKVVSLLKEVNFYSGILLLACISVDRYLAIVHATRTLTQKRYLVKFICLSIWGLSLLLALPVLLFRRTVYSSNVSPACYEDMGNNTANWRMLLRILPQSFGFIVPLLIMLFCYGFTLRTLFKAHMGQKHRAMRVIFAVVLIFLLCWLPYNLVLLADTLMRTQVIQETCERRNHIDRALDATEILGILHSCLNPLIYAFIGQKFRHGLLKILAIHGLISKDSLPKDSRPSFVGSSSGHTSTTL

Y2 (h) = target: T17, Y2 (h) (Homo sapiens, UniProt P49146)
T17 construct: gene NPY2R

CCR1 (h) = CCR1 (h) (Homo sapiens, UniProt P32246)
CCK1 (CCKA) (h) = target: T18, CCK1 (CCKA) (h) (Homo sapiens, UniProt P32238)
T18 construct: gene CCKAR

M1 (h) = target: T19, M1 (h) (Homo sapiens, UniProt P11229)
T19 construct: gene CHRM1

beta 1 (h) = target: T20, beta 1 (h) (Homo sapiens, UniProt P08588)
T20 construct: gene ADRB1

VPAC1 (VIP1) (h) = target: T21, VPAC1 (VIP1) (h) (Homo sapiens, UniProt P32241)
T21 construct: gene VIPR1

V1a (h) = target: T22, V1a (h) (Homo sapiens, UniProt P37288)
T22 construct: gene AVPR1A
T22 sequence (P37288 whole entry): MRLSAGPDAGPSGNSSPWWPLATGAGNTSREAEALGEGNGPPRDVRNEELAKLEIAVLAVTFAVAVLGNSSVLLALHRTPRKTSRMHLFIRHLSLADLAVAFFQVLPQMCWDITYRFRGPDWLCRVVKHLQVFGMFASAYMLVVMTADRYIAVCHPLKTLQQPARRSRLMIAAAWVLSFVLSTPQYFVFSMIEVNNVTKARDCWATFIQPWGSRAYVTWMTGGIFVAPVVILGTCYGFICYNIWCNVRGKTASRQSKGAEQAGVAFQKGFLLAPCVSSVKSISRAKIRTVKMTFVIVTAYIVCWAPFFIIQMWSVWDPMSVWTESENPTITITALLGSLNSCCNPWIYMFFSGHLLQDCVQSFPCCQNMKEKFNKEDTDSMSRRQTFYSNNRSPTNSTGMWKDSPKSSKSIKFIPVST

Y1 (h) = target: T23, Y1 (h) (Homo sapiens, UniProt P25929)
T23 construct: gene NPY1R
T23 sequence (P25929 whole entry): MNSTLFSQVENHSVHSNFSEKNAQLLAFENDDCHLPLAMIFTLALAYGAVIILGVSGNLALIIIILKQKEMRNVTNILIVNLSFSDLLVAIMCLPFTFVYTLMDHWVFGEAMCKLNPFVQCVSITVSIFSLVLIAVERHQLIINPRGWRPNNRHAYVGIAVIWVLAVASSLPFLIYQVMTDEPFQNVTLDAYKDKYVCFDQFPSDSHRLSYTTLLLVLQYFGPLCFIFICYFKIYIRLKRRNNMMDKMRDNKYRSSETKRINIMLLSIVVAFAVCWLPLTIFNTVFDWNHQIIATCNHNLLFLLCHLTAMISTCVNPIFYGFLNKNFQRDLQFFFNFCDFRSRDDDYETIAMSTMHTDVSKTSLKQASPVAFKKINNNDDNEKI

Cc1ncsc1-c1ccc(CNC(=O)[C@@H]2C[C@@H](O)CN2C(=O)[C@@H](NC(=O)C2(C#N)CC2)C(C)(C)C)cc1 [VH298]
remaining binding at 50 µM (NK3 (h)): 94%
remaining binding at 50 µM (GAL2 (h)): 87%
remaining binding at 50 µM (beta 2 (h)): 95%
remaining binding at 50 µM (kappa (KOP)): 92%
remaining binding at 50 µM (delta (DOP) (h)): 65%
remaining binding at 50 µM (NOP (ORL1) (h)): 92%
remaining binding at 50 µM (mu (MOP) (h)): 106%
remaining binding at 50 µM (M3 (h)): 95%
remaining binding at 50 µM (NK2 (h)): 73%
remaining binding at 50 µM (H1 (h)): 101%
remaining binding at 50 µM (D1 (h)): 103%
remaining binding at 50 µM (5-HT1A (h)): 82%
remaining binding at 50 µM (5-HT1B): 117%
remaining binding at 50 µM (5-HT3 (h)): 92%
remaining binding at 50 µM (MC4 (h)): 98%
remaining binding at 50 µM (5-HT2B (h)): 91%
remaining binding at 50 µM (CXCR2 (IL-8B) (h)): 102%
remaining binding at 50 µM (Y2 (h)): 97%
remaining binding at 50 µM (CCR1 (h)): 111%
remaining binding at 50 µM (CCK1 (CCKA) (h)): 127%
remaining binding at 50 µM (M1 (h)): 94%
remaining binding at 50 µM (beta 1 (h)): 83%
remaining binding at 50 µM (VPAC1 (VIP1) (h)): 85%
remaining binding at 50 µM (V1a (h)): 95%
remaining binding at 50 µM (Y1 (h)): 106%
